Experimental data reported in patent publication US5847108A, “Clathrate of isoflavone derivatives and edible composition comprising the same” (Fujicco Co., Ltd., priority 1996, dated 1998).

Key:
[1] = in words, dietary intake; cited from earlier work
[2] = 24 h urinary excretion of isoflavone derivatives after oral administration to ovariectomized rats; design: species or system Sprague-Dawley rats; conditions: in vivo, rat, 24 h urine on day before final administration, Means ± S.D., a: significantly different from nonclathrated (1%), read-out: Urinary Excretion Rate
Procedure: To obtain postmenopausal osteoporosis model, eighty-day-old Sprague-Dawley rats, on day 10 after ovariectomy, was grown for 28 days feeding with calcium deficient diet (Ca: 0.004%, P: 0.3%), with one group consisting of 5 to 6 rats. During the time the rats were growing, an isoflavone derivative, or a β-cyclodextrin clathrate thereof (see Table 3), was administered orally in the form of a solution or a suspension in 1% aqueous hydroxypropylcellulose. On the day before the final administration, urine was collected for 24 hours. Blood was collected from postcava at 4 hours after the final administration, and a femur was removed. The collected blood was separated to obtain serum according to a standard method. In order to determine the amounts of isoflavone derivatives in the obtained samples of urine and serum, the samples were subjected to the reactions for 2 hours at 37° C. through adding thereto 50 Units/ml of sulfatase (EC3.1.6.1; SIGMA CHEMICAL Co. LTD.) in 1 ml of acetate buffer (0.1M, pH 4.5). […] After treating it with Sep-Pak (Waters), the incubated solution was analyzed using HPLC as described in the above clathrate formation test. Concentration of each isoflavone derivatives in the sample was determined based on the values for daidzein, genistein, or glycitein as a standard. Bone density of femur was calculated based on wet weight and volume measured by pycnometer.

[3] = test system: postmenopausal osteoporosis model (femur); assay: Bone density of femur in postmenopausal osteoporosis model (ovariectomized rats, calcium deficient diet); format: in vivo, Sprague-Dawley rats; conditions: ovariectomized rat femur, oral, 28 days; Means ± S.D.; a: vs nonclathrated, b: vs control (1%)
Procedure: (§1) To obtain postmenopausal osteoporosis model, eighty-day-old Sprague-Dawley rats, on day 10 after ovariectomy, was grown for 28 days feeding with calcium deficient diet (Ca: 0.004%, P: 0.3%), with one group consisting of 5 to 6 rats. During the time the rats were growing, an isoflavone derivative, or a β-cyclodextrin clathrate thereof (see Table 3), was administered orally in the form of a solution or a suspension in 1% aqueous hydroxypropylcellulose. On the day before the final administration, urine was collected for 24 hours. Blood was collected from postcava at 4 hours after the final administration, and a femur was removed. The collected blood was separated to obtain serum according to a standard method. In order to determine the amounts of isoflavone derivatives in the obtained samples of urine and serum, the samples were subjected to the reactions for 2 hours at 37° C. through adding thereto 50 Units/ml of sulfatase (EC3.1.6.1; SIGMA CHEMICAL Co. LTD.) in 1 ml of acetate buffer (0.1M, pH 4.5). Then 1 ml of acetate buffer (0.1M, pH 4.5) containing β-glucuronidase (200 Units/ml, EC 3.2.1.31, WAKO JYUNYAKU KOGYO KABUSIKI KAISYA) was added to the mixture and incubated for 2 hours at 37° C. After treating it with Sep-Pak (Waters), the incubated solution was analyzed using HPLC as described in the above clathrate formation test. Concentration of each isoflavone derivatives in the sample was determined based on the values for daidzein, genistein, or glycitein as a standard. Bone density of femur was calculated based on wet weight and volume measured by pycnometer.

[4] = Serum (blood) level of isoflavone derivatives after oral administration to ovariectomized rats; design: species or system Sprague-Dawley rats; conditions: in vivo
Procedure: as §1

O=c1c(-c2ccc(O)cc2)coc2cc(O[C@@H]3O[C@H](CO)[C@@H](O)[C@H](O)[C@H]3O)ccc12 [daidzin]
urinary excretion in Japanese female relative to female in Boston or Helsinki [1]: ten times greater | dose excreted at 24 h [2]: 9.3 ± 0.7% | Bone Density [3]: 1.496 ± 0.015 g/mL | concentration at 4 h ([4]; heading: Blood Level, rat serum, oral, 4 hours after the final administration, Means ± S.D., a: significantly different from nonclathrated (1%)): 840 ± 30 ng/mL

O=c1c(-c2ccc(O)cc2)coc2cc(O)cc(O)c12 [genistein]
Bone Density [3]: 1.492 ± 0.012 g/mL | concentration at 4 h ([4]; rat): 680 ± 30 ng/mL

O=C(O)CCC(=O)OC[C@H]1O[C@@H](Oc2cc(O)c3c(=O)c(-c4ccc(O)cc4)coc3c2)[C@H](O)[C@@H](O)[C@@H]1O [6"-O-succinylgenistin]
Bone Density [3]: 1.486 ± 0.028 g/mL | concentration at 4 h ([4]; rat): 820 ± 50 ng/mL

CC(=O)OC[C@H]1O[C@@H](Oc2ccc3c(=O)c(-c4ccc(O)cc4)coc3c2)[C@H](O)[C@@H](O)[C@@H]1O [6"-O-acetyldaidzin]
Bone Density [3]: 1.492 ± 0.014 g/mL | concentration at 4 h ([4]; rat): 740 ± 50 ng/mL

COc1cc2c(=O)c(-c3ccc(O)cc3)coc2cc1O[C@@H]1O[C@H](COC(=O)CC(=O)O)[C@@H](O)[C@H](O)[C@H]1O [6"-O-malonylglycitin]
Bone Density [3]: 1.489 ± 0.012 g/mL | concentration at 4 h ([4]; rat): 780 ± 50 ng/mL

CC(=O)OC[C@H]1O[C@@H](Oc2cc(O)c3c(=O)c(-c4ccc(O)cc4)coc3c2)[C@H](O)[C@@H](O)[C@@H]1O [6"-O-acetylgenistin]
Bone Density [3]: 1.494 ± 0.028 g/mL | concentration at 4 h ([4]; rat): 780 ± 70 ng/mL

COc1cc2c(=O)c(-c3ccc(O)cc3)coc2cc1O[C@@H]1O[C@H](CO)[C@@H](O)[C@H](O)[C@H]1O [glycitin]
Bone Density [3]: 1.494 ± 0.015 g/mL | concentration at 4 h ([4]; rat): 750 ± 60 ng/mL

COc1cc2c(=O)c(-c3ccc(O)cc3)coc2cc1O[C@@H]1O[C@H](COC(=O)CCC(=O)O)[C@@H](O)[C@H](O)[C@H]1O [6"-O-succinylglycitin]
Bone Density [3]: 1.477 ± 0.032 g/mL | concentration at 4 h ([4]; rat): 790 ± 30 ng/mL

O=C(O)CC(=O)OC[C@H]1O[C@@H](Oc2cc(O)c3c(=O)c(-c4ccc(O)cc4)coc3c2)[C@H](O)[C@@H](O)[C@@H]1O [6"-O-malonylgenistin]
Bone Density [3]: 1.494 ± 0.013 g/mL | concentration at 4 h ([4]; rat): 840 ± 40 ng/mL

O=C(O)CC(=O)OC[C@H]1O[C@@H](Oc2ccc3c(=O)c(-c4ccc(O)cc4)coc3c2)[C@H](O)[C@@H](O)[C@@H]1O [6"-O-malonyldaidzin]
Bone Density [3]: 1.488 ± 0.012 g/mL | concentration at 4 h ([4]; rat): 850 ± 50 ng/mL

COc1cc2c(=O)c(-c3ccc(O)cc3)coc2cc1O[C@@H]1O[C@H](COC(C)=O)[C@@H](O)[C@H](O)[C@H]1O [6"-O-acetylglycitin]
Bone Density [3]: 1.489 ± 0.012 g/mL | concentration at 4 h ([4]; rat): 720 ± 60 ng/mL

COc1cc2c(=O)c(-c3ccc(O)cc3)coc2cc1O [glycitein]
Bone Density [3]: 1.493 ± 0.013 g/mL | concentration at 4 h ([4]; rat): 630 ± 50 ng/mL

O=C(O)CCC(=O)OC[C@H]1O[C@@H](Oc2ccc3c(=O)c(-c4ccc(O)cc4)coc3c2)[C@H](O)[C@@H](O)[C@@H]1O [6"-O-succinyldaidzin]
Bone Density [3]: 1.490 ± 0.030 g/mL | concentration at 4 h ([4]; rat): 860 ± 30 ng/mL

O=c1c(-c2ccc(O)cc2)coc2cc(O[C@@H]3O[C@H](CO)[C@@H](O)[C@H](O)[C@H]3O)cc(O)c12 [genistin]
Bone Density [3]: 1.502 ± 0.007 g/mL | concentration at 4 h ([4]; rat): 780 ± 40 ng/mL

O=c1c(-c2ccc(O)cc2)coc2cc(O)ccc12 [daidzein]
Bone Density [3]: 1.489 ± 0.013 g/mL | concentration at 4 h ([4]; rat): 650 ± 40 ng/mL
